Source: patent publication US11648315B2, “Silvestrol antibody-drug conjugates and methods of use” (Genentech, Inc., priority 2016, dated 2023)

Legend:
Assay type in all cases: cell-based
MES-SA = experiment: In vitro efficacy of free drug silvestrol compounds, MES-SA; settings: Homo sapiens; MES-SA cell line
Source text: (§1) The CellTiter-Glo® Luminescent Cell Viability Assay is a commercially available (Promega Corp., Madison, Wis.), homogeneous assay method based on the recombinant expression of Coleoptera luciferase (U.S. Pat. Nos. 5,583,024; 5,674,713; 5,700,670). This cell proliferation assay determines the number of viable cells in culture based on quantitation of the ATP present, an indicator of metabolically active cells (Crouch et al (1993) J. Immunol. Meth. 160:81-88; U.S. Pat. No. 6,602,677). The CellTiter-Glo® Assay was conducted in 96 well format, making it amenable to automated high-throughput screening (HTS) (Cree et al (1995) AntiCancer Drugs 6:398-404). The homogeneous assay procedure involves adding the single reagent (CellTiter-Glo® Reagent) directly to cells cultured in serum-supplemented medium. […]
(§2) Inhibition of cell proliferation in vitro may be assayed using the CellTiter-Glo™ Luminescent Cell Viability Assay, an embodiment of which is detailed as Example 6. Such assay determines the number of viable cells in culture based on quantitation of ATP present, which is an indication of metabolically active cells (Crouch et al. (1993) J. Immunol. Meth. 160:81-88; U.S. Pat. No. 6,602,677). […] Data can be recorded by luminometer or CCD camera imaging device. The luminescence output is expressed as relative light units (RLU).

MES-SA/Dx5 = experiment: In vitro efficacy of free drug silvestrol compounds, MES-SA/Dx5; settings: Homo sapiens; MES-SA/Dx5 cell line
Source text: as §1, §2

BJAB = experiment: In vitro efficacy of free drug silvestrol compounds, BJAB; settings: Homo sapiens; BJAB cell line
Source text: as §1, §2

KPL-4 cells = experiment: In vitro cell viability (CellTiter-Glo), KPL-4 cells; settings: Homo sapiens, KPL4; KPL-4 cell line; read-out: IC50 (nM) free drug
Description: (§3) Generally, the cytotoxic or cytostatic activity of an antibody-drug conjugate (ADC) is measured by: exposing mammalian cells having receptor proteins, e.g. HER2, to the antibody of the ADC in a cell culture medium; culturing the cells for a period from about 6 hours to about 5 days; and measuring cell viability. Cell-based in vitro assays were used to measure viability (proliferation), cytotoxicity, and induction of apoptosis (caspase activation) of the ADC of the invention.
(§4) The CellTiter-Glo® Luminescent Cell Viability Assay is a commercially available (Promega Corp., Madison, Wis.), homogeneous assay method based on the recombinant expression of Coleoptera luciferase (U.S. Pat. Nos. 5,583,024; 5,674,713; 5,700,670). This cell proliferation assay determines the number of viable cells in culture based on quantitation of the ATP present, an indicator of metabolically active cells (Crouch et al (1993) J. Immunol. Meth. 160:81-88; U.S. Pat. No. 6,602,677). […]
(§5) Inhibition of cell proliferation in vitro may be assayed using the CellTiter-Glo™ Luminescent Cell Viability Assay, an embodiment of which is detailed as Example 6. Such assay determines the number of viable cells in culture based on quantitation of ATP present, which is an indication of metabolically active cells (Crouch et al. (1993) J. Immunol. Meth. 160:81-88; U.S. Pat. No. 6,602,677). […]

HCC1569 X2 = experiment: In vitro efficacy of free drug silvestrol compounds, HCC1569 X2; settings: Homo sapiens; HCC1569 X2 cell line
Source text: as §1
as §2, with “(RLU). […]” for “(RLU).”

T-47D = experiment: In vitro efficacy of free drug silvestrol compounds, T-47D; settings: Homo sapiens, T47D; T-47D cell line
Source text: as §1, §2

HCC1937 = experiment: In vitro efficacy of free drug silvestrol compounds, HCC1937; settings: Homo sapiens; HCC1937 cell line
Source text: as §1, §2

NCI-H1781 = experiment: In vitro efficacy of free drug silvestrol compounds, NCI-H1781; settings: NCI-H1781 cell line
Source text: as §1, §2

SW 900 = experiment: In vitro efficacy of free drug silvestrol compounds, SW 900; settings: Homo sapiens, SW900; SW 900 cell line
Source text: as §1, §2

SK-BR-3 cells = experiment: In vitro cell viability (CellTiter-Glo), SK-BR-3 cells; settings: Homo sapiens, read-out: IC50 free drug
Description: as §3, §4, §5

cell lines of Table 7 = experiment: In vitro efficacy of free drug silvestrol compounds, summary over cell lines of Table 7; settings: summary of Table 7
Source text: The CellTiter-Glo® Luminescent Cell Viability Assay is a commercially available (Promega Corp., Madison, Wis.), homogeneous assay method based on the recombinant expression of Coleoptera luciferase (U.S. Pat. Nos. 5,583,024; 5,674,713; 5,700,670). This cell proliferation assay determines the number of viable cells in culture based on quantitation of the ATP present, an indicator of metabolically active cells (Crouch et al (1993) J. Immunol. Meth. 160:81-88; U.S. Pat. No. 6,602,677). The CellTiter-Glo® Assay was conducted in 96 well format, making it amenable to automated high-throughput screening (HTS) (Cree et al (1995) AntiCancer Drugs 6:398-404). The homogeneous assay procedure involves adding the single reagent (CellTiter-Glo® Reagent) directly to cells cultured in serum-supplemented medium. Cell washing, removal of medium and multiple pipetting steps are not required. The system detects as few as 15 cells/well in a 384-well format in 10 minutes after adding reagent and mixing. The cells may be treated continuously with ADC, or they may be treated and separated from ADC.
Inhibition of cell proliferation in vitro may be assayed using the CellTiter-Glo™ Luminescent Cell Viability Assay, an embodiment of which is detailed as Example 6. Such assay determines the number of viable cells in culture based on quantitation of ATP present, which is an indication of metabolically active cells (Crouch et al. (1993) J. Immunol. Meth. 160:81-88; U.S. Pat. No. 6,602,677). The assay may be conducted in 96- or 384-well format, making it amenable to automated high-throughput screening (HTS). See Cree et al. (1995) AntiCancer Drugs 6:398-404. The assay procedure involves adding a single reagent (CellTiter-Glo® Reagent) directly to cultured cells. […] The luminescent signal is proportional to the amount of ATP present, which is directly proportional to the number of viable cells present in culture. Data can be recorded by luminometer or CCD camera imaging device. The luminescence output is expressed as relative light units (RLU). […]

| SMILES | IC50 (MES-SA) [nM] | IC50 (MES-SA/Dx5) [nM] | IC50 (BJAB) [nM] | IC50 (KPL-4 cells) [nM] | IC50 (HCC1569 X2) [nM] | IC50 (T-47D) [nM] | IC50 (HCC1937) [nM] | IC50 (NCI-H1781) [nM] | IC50 (SW 900) [nM] | IC50 (SK-BR-3 cells) [nM] | IC50s of free drug, in words (cell lines of Table 7) | activity of free drug in vitro (cell lines of Table 7) |
| --- | --- | --- | --- | --- | --- | --- | --- | --- | --- | --- | --- | --- |
| COC(=O)[C@H]1[C@@H](O)[C@@]2(O)c3c(OC)cc(O[C@@H]4O[C@@H](CCN)CO[C@H]4OC)cc3O[C@@]2(c2ccc(OC)cc2)[C@@H]1c1ccccc1 [amino silvestrol analog, (1R,2R,3S,3aR,8bS)-methyl 6-(((2S,3R,6S)-6-(2-aminoethyl)-3-methoxy-1,4-dioxan-2-yl)oxy)-1,8b-dihydroxy-8-methoxy-3a-(4-methoxyphenyl)-3-phenyl-2,3,3a,8b-tetrahydro-1H-cyclopenta[b]benzofuran-2-carboxylate] | 1.1 | > 100 | 0.81 | 1.2 | 1.3 | 1 | 0.66 | 1 | 2.9 | 1.6 | pM or low nM | active |
| COc1ccc([C@@]23Oc4cc(O[C@@H]5O[C@@H]([C@H](O)CO)CO[C@H]5OC)cc(OC)c4[C@]2(O)[C@H](O)[C@H](C(=O)NCCN)[C@H]3c2ccccc2)cc1 [silvestrol amine, (1R,2R,3S,3aR,8bS)-N-(2-aminoethyl)-6-(((2S,3R,6R)-6-((R)-1,2-dihydroxyethyl)-3-methoxy-1,4-dioxan-2-yl)oxy)-1,8b-dihydroxy-8-methoxy-3a-(4-methoxyphenyl)-3-phenyl-2,3,3a,8b-tetrahydro-1H-cyclopenta[b]benzofuran-2-carboxamide] | > 100 | > 200 | > 200 | > 200 | > 200 | > 200 | > 200 | > 200 | > 200 | – | – | inactive |
